The text below walks through data of ChEMBL document CHEMBL1201862, “PubChem BioAssay data set” (2004).

Structures are written as SMILES.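 Exposure lasted 48 hours, with cells grown in 96-well plates and compounds tested at five concentrations. At the GI50, growth is halved.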 Activity calls are given as the source filed them. No stated cut-off is given here; in the data, active = GI50 up to about 1.1 µM and inactive = higher. Some results are limits rather than exact numbers.

Test systems include ACHN; BT-549; HCC 2998; HCT-116; HL-60; HOP-62; Hs-578T; MDA-N; MOLT-4; OVCAR-3; OVCAR-4; SF-539; SK-MEL-5; SR; SW-620; TK-10; UACC-62; DU-145; SF-268; T47D.
What all share (assay): inhibition of tumour cell growth, NCI panel, 48 h

For `CCOC(=O)N(NC(=O)NC(C)C)c1ccccc1`, the GI50 with ACHN is > 100 µM (inactive); with BT-549, > 100 µM (inactive); in the experiment with HCC 2998, 84.1 µM (inactive); in the experiment with HCT-116, > 100 µM (inactive); in the experiment on HL-60, 60.1 µM (inactive); in the experiment with HOP-62 it was > 100 µM (inactive). Moreover, the GI50 with Hs-578T, in the experiment on MDA-N, in the experiment with MOLT-4, with OVCAR-3, with OVCAR-4 and with SF-539 was > 100 µM (inactive) in each case. Besides, the GI50 in the experiment on SK-MEL-5, in the experiment with SR, with SW-620, in the experiment on TK-10 and in the experiment with UACC-62 was > 100 µM (inactive) in each case.
Turning to `N#CCCN(CCC#N)c1ccc(/C=C2\N=C(c3ccccc3)N(c3ccc(C(=O)O)cc3)C2=O)cc1`, the GI50 in the experiment on ACHN is 42.5 µM (inactive); with BT-549, 24.4 µM (inactive); in the experiment on DU-145, 69.2 µM (inactive); in the experiment on HCT-116 it was 33.7 µM (inactive); with HL-60 it was > 10 µM (inactive); with HOP-62 it was > 100 µM (inactive). The GI50 with Hs-578T was 22.3 µM (inactive); with MDA-N, > 100 µM (inactive); with MOLT-4 it was 0.641 µM (active); with OVCAR-3, 40.1 µM (inactive); in the experiment on OVCAR-4 it was 14.4 µM (inactive); in the experiment with SF-268, 21.1 µM (inactive). Moreover, the GI50 is 24.4 µM (inactive) in the experiment on SF-539; 36.6 µM (inactive) in the experiment on SK-MEL-5; 21 µM (inactive) in the experiment with SW-620; 40.7 µM (inactive) in the experiment on T47D; > 100 µM (inactive) in the experiment with TK-10; 23.8 µM (inactive) in the experiment on UACC-62.
`COc1ccc2[nH]c3c(c2c1)CC(=O)N1CCCC(CC3O)C1` (stereo not given): the GI50 in the experiment with ACHN, in the experiment on BT-549, with DU-145, in the experiment on HCC 2998, in the experiment on HCT-116 and with Hs-578T was > 100 µM (inactive) throughout. Moreover, the GI50 in the experiment on MDA-N, with OVCAR-4, in the experiment on SF-268, with SF-539, in the experiment with SK-MEL-5 and in the experiment with SW-620 was > 100 µM (inactive) throughout. Moreover, the GI50 in the experiment on T47D, in the experiment with TK-10 and in the experiment with UACC-62 was > 100 µM (inactive) in each case.
Consider `CSc1nc2ccccc2c(=O)n1/N=C1\C(=O)N(CN2CCCCC2)c2ccc(Cl)cc21`, for which the GI50 in the experiment with ACHN is 28.6 µM (inactive); in the experiment with BT-549, 15 µM (inactive); in the experiment with DU-145, 17.3 µM (inactive); in the experiment with HCT-116, 18.5 µM (inactive); in the experiment with HL-60, 10.9 µM (inactive); with HOP-62, 33.3 µM (inactive). The GI50 in the experiment on Hs-578T is 37.7 µM (inactive); with MDA-N, 21.8 µM (inactive); in the experiment with MOLT-4, 12.4 µM (inactive); in the experiment on OVCAR-3, 59.3 µM (inactive); in the experiment on OVCAR-4, 30.2 µM (inactive); in the experiment with SF-268, 20.1 µM (inactive). Further, the GI50 was 37.6 µM (inactive) in the experiment on SF-539; 27.9 µM (inactive) with SK-MEL-5; 12.5 µM (inactive) in the experiment with SW-620; 13.3 µM (inactive) with T47D; 26.4 µM (inactive) in the experiment with TK-10; 8.89 µM (inactive) with UACC-62.
As to `COc1ccc(/C=N/NS(=O)(=O)c2ccc(/C=C3\NC(=O)NC3=O)cc2)cc1`, the GI50 was > 100 µM (inactive) with ACHN; > 100 µM (inactive) in the experiment with BT-549; > 100 µM (inactive) in the experiment on DU-145; > 100 µM (inactive) in the experiment with HCC 2998; > 100 µM (inactive) with HCT-116; 98.6 µM (inactive) in the experiment on HL-60. The GI50 in the experiment on HOP-62 is > 100 µM (inactive); with Hs-578T it was 28.1 µM (inactive); in the experiment on MDA-N it was > 100 µM (inactive); in the experiment with MOLT-4, > 100 µM (inactive); in the experiment on OVCAR-3 it was > 100 µM (inactive); in the experiment on OVCAR-4, > 100 µM (inactive). In addition, the GI50 is 28.1 µM (inactive) in the experiment with SF-268; > 100 µM (inactive) in the experiment on SK-MEL-5; > 100 µM (inactive) in the experiment on SW-620; > 100 µM (inactive) with T47D; > 100 µM (inactive) in the experiment on TK-10; > 100 µM (inactive) in the experiment with UACC-62.
Regarding `O=C1/C(=N\n2c(S)nnc2-c2ccncc2)c2cc(Cl)ccc2N1CN1CCCCC1`, the GI50 with ACHN was 50.4 µM (inactive); in the experiment with BT-549, 25.9 µM (inactive); with DU-145, 29.6 µM (inactive); in the experiment on HCT-116, 37.8 µM (inactive); in the experiment with HL-60, 13.1 µM (inactive); with HOP-62, 30.3 µM (inactive). Further, the GI50 is 19.8 µM (inactive) in the experiment with Hs-578T; 31.5 µM (inactive) in the experiment on MDA-N; 12.3 µM (inactive) with MOLT-4; 73.8 µM (inactive) in the experiment with OVCAR-3; 32.2 µM (inactive) with OVCAR-4; 53.5 µM (inactive) in the experiment on SF-268. Further, the GI50 in the experiment with SF-539 is 35 µM (inactive); in the experiment with SK-MEL-5, 48.6 µM (inactive); in the experiment on SW-620, 18.6 µM (inactive); in the experiment on T47D, 23.1 µM (inactive); with TK-10, 30.3 µM (inactive); with UACC-62, 34.4 µM (inactive).
For `COc1ccc(CC2c3cc4c(cc3CCN2C)OCO4)c(C=O)c1OC` (stereo not given), the GI50 in the experiment with ACHN, in the experiment on BT-549, with DU-145, in the experiment on HCC 2998, with HCT-116 and in the experiment on HL-60 was > 100 µM (inactive) each time. For the same compound, the GI50 in the experiment with Hs-578T, in the experiment with MDA-N, with MOLT-4, in the experiment on OVCAR-3, in the experiment on OVCAR-4 and in the experiment on SF-268 was > 100 µM (inactive) in each case. Also, the GI50 with SF-539, in the experiment on SK-MEL-5, with SW-620, in the experiment on T47D, in the experiment on TK-10 and in the experiment on UACC-62 was > 100 µM (inactive) each time.
As for `O=C(Nc1ccc(Cl)cc1C(F)(F)F)C(=O)Nn1c(S)nc2ccccc2c1=O`, the GI50 with ACHN is > 100 µM (inactive); in the experiment on BT-549 it was > 100 µM (inactive); in the experiment with HCC 2998, > 100 µM (inactive); with HCT-116, > 100 µM (inactive); with HL-60, 60.5 µM (inactive); with HOP-62, > 100 µM (inactive). Moreover, the GI50 was > 100 µM (inactive) in the experiment on Hs-578T; > 100 µM (inactive) in the experiment with MDA-N; > 100 µM (inactive) in the experiment with MOLT-4; > 100 µM (inactive) in the experiment on OVCAR-3; 60.4 µM (inactive) in the experiment on OVCAR-4; > 100 µM (inactive) with SF-268. For the same compound, the GI50 with SF-539, in the experiment with SK-MEL-5, with SW-620, in the experiment on T47D, with TK-10 and in the experiment on UACC-62 was > 100 µM (inactive) in each case.
For `O=[N+]([O-])C(C(Cl)=C(Cl)Cl)=C(N(Cc1ccccc1)Cc1ccccc1)N(Cc1ccccc1)Cc1ccccc1`, the GI50 with ACHN was 82 µM (inactive); in the experiment with BT-549, > 100 µM (inactive); in the experiment on DU-145 it was > 100 µM (inactive); with HCC 2998 it was 24 µM (inactive); in the experiment on HCT-116, 42.1 µM (inactive); with HL-60 it was 17.3 µM (inactive). Moreover, the GI50 is 43.7 µM (inactive) in the experiment with HOP-62; > 100 µM (inactive) in the experiment on Hs-578T; 45.3 µM (inactive) in the experiment with MDA-N; > 100 µM (inactive) in the experiment with MOLT-4; > 100 µM (inactive) with OVCAR-3; > 100 µM (inactive) in the experiment with SF-268. In addition, the GI50 is 30.3 µM (inactive) in the experiment on SF-539; 42.8 µM (inactive) in the experiment with SK-MEL-5; > 100 µM (inactive) in the experiment with SW-620; > 100 µM (inactive) with T47D; > 100 µM (inactive) in the experiment on TK-10; > 100 µM (inactive) with UACC-62.
For `O=C(O)c1cccc2cccc(-c3cccc4cccc(C(=O)O)c34)c12`, the GI50 in the experiment with ACHN, in the experiment with BT-549, with DU-145, in the experiment on HCC 2998, with HCT-116 and in the experiment with HL-60 was > 100 µM (inactive) throughout. Also, the GI50 in the experiment with HOP-62, in the experiment on Hs-578T, in the experiment on MDA-N, in the experiment with OVCAR-3, in the experiment with OVCAR-4 and with SF-268 was > 100 µM (inactive) throughout. Moreover, the GI50 with SF-539, in the experiment with SK-MEL-5, with SW-620, with T47D, with TK-10 and with UACC-62 was > 100 µM (inactive) in each case.
With `Cc1ccc(C(=O)Nc2ccc(CP(=O)(O)O)cc2CP(=O)(O)O)cc1NC(=O)c1cccc(NC(=O)Nc2cccc(C(=O)Nc3cc(C(=O)Nc4ccc(CP(=O)(O)O)cc4CP(=O)(O)O)ccc3C)c2)c1`, the GI50 with ACHN, with BT-549, with DU-145, with HCC 2998, in the experiment with HCT-116 and in the experiment on HL-60 was > 100 µM (inactive) each time. Also, the GI50 in the experiment on HOP-62, in the experiment with Hs-578T, in the experiment with MDA-N, in the experiment on MOLT-4, in the experiment with OVCAR-3 and in the experiment with OVCAR-4 was > 100 µM (inactive) throughout. Also, the GI50 in the experiment with SF-268 was > 100 µM (inactive); with SF-539 it was > 100 µM (inactive); in the experiment with SK-MEL-5 it was > 100 µM (inactive); in the experiment with SW-620 it was 41.8 µM (inactive); in the experiment with T47D it was > 100 µM (inactive); in the experiment with TK-10, > 100 µM (inactive). The GI50 in the experiment with UACC-62 was > 100 µM (inactive).
